Reference: the pKa sets of Baltruschat and Czodrowski (2020)
Where a SMILES comes first, the peptide text is derived from it. [ ]: non-standard residue; d: D form. pGlu = O=C1CC[C@@H](C(=O)O)N1

SMILES	pKa (basic group)	pKa (acidic group)
C[NH+](C)CCCNc1ccnc2cccc([N+](=O)[O-])c12	6.39	
CC(C)(C(N)=O)S(N)(=O)=O		9.92
CN(C)c1ccc2ccccc2c1	4.57	
O=C(O)[C@H]1C[C@@H]2CC[C@H]1C2		5.02
O=C(NO)[C@@H]1[C@H](C(=O)NO)[C@@H]2CC[C@H]1O2		9.3
NCCc1ccc([O-])cc1	10.4	
CN(C)CCCCCCCCCCNC(=O)/C=N/[O-]	10.6	
CC(C)c1ccccc1C(=O)O		3.64
C[n+]1cccc(CC(=O)c2ccccc2)c1		11
Nc1cccc2nnn([C@@H]3C[C@@H](O)[C@H](CO)O3)c12	1.8	
CCN(CC)CC(=O)NC1CCCCC1	8.21	
CCCCCCCCCCCCNc1ccccc1	4.12	
[NH3+]C(Cc1ccc[nH+]c1)C(=O)O (configuration not stated)		1.69
CNN	7.87	
CCOC(=O)Nc1nnc(-c2ccccc2)s1		8.2
O=S(=O)(Nc1ncc(Cl)cn1)c1ccc(O)cc1		5.59
NCC=C(Cl)Cl	9.3	
CCNC(=O)C1CCCCN1 (configuration not stated)	8.6	
C[N+](C)(C)CCCC(=O)O		4.02
Cc1cc(O)ccc1O		10.1
O=C(O)[C@H](O)c1cccc([N+](=O)[O-])c1		3.03
O=[N+]([O-])c1ccc([O-])c(CN2CCCCC2)c1	10.5	
O=C(O)CSc1cccc([N+](=O)[O-])c1		3.4
NCc1cccnc1	8.33	

SMILES	pKa (basic group)	pKa (acidic group)
O=C(O)Cc1ccc2ccccc2c1		4.26
COc1nc(N)c2ncn([C@H]3O[C@@H](CO)[C@H](O)[C@@H]3O)c2n1	3.2	
COc1ccc(C[NH3+])cc1N	4.16	
NCC(O)CO (configuration not stated)	9.3	
NC(=O)CS		8.22
CCN(CC)CCNc1nc(C)cc(Nc2ccc(Cl)cc2)n1	9.6	
CCCNCc1ccc(C)cc1	9.98	
c1ccc(-c2ccncc2)nc1	4.77	
[O-]c1cnnc2ccccc12	9.27	
CCCCCNc1ccccc1	5.2	
Oc1[nH]c2ccccc2[nH+]1		-1.7
O=C([O-])c1ccnc2ccccc12	4.76	
S=c1[nH]c2ccccc2[nH]1		10.2
CCSC(C)=N	6.9	
CCC1CN1CC (configuration not stated)	8.19	
OCc1cccc(CO)c1O		9.66
C1CCN(CCCN2CCCC2)C1	10	
SCc1c[nH]cn1	6.54	9.54
COC(=O)C([NH3+])Cc1c[nH]cn1 (configuration not stated)	5.41	
CC[NH+](CC)Cc1cc([N+](=O)[O-])c2ccccc2c1O		2.82
O=C(O)C12CCC(O)(CC1)CC2		6.33
CCOc1cccc(/N=C/N(C)C)c1	8.87	
N#CC(C#N)=C(C#N)Nc1ccc(Br)cc1		4.45
[NH3+]C/C=C/C(=O)O		3.55

SMILES	pKa (basic group)	pKa (acidic group)
C[N+](C)(C)c1ccc(O)c([N+](=O)[O-])c1		5.03
Nc1ncc2[nH]c[nH+]c2n1	-0.28	
[NH3+]CCCC(=O)O		4.06
C=C(C)[C@@H]1CN(C(C)=O)[C@H](C(=O)OC)[C@@H]1CC(=O)O		4.6
C/C=C/CC(=O)O		4.28
N#CSc1ccc(O)cc1		8.57
[O-]c1c(Cl)cc(Cl)cc1CN1CCCCC1	11.1	
CCN(CC)C(C)C=C(c1cccs1)c1cccs1 (configuration not stated)	8.9	
C[C@H]1O[C@H](O[C@H]2CC[C@H](n3ccc(N)nc3=O)O[C@@H]2C)[C@H](O)[C@@H](O)[C@@H]1N(C)C	7	
Nc1ccc2ccnnc2c1	4.85	
NCc1ccccc1	9.36	
CN(C)Cc1cc(C(C)(C)C)ccc1O	8.55	11.5
CN(C)c1ccc(/N=N/c2cccc[nH+]2)cc1	2	
Oc1ccc2cccc(-c3ccccc3)c2c1		9.38
Cc1cc([S-])[nH+]c([S-])n1	6.87	
Cc1ccccc1B(O)O		9.74
C=C1CC1C[C@H]([NH3+])C(=O)O (some centres not stated)		2.4
[O-]c1cc(O)cc[nH+]1		6.5
C[C@@H]1CC[C@@H]2CCCN21	12	
Cc1ccc(N2CCCC2)cc1	4.69	
COc1ccc(C(=N)c2ccccc2)c(OC)c1	8.3	
Cc1cccc(/N=N/c2ccc(N)cc2)c1	2.88	
O=C([O-])C[NH+](CC(=O)[O-])Cc1nc2ccccc2[nH]1	3.95	
Oc1ccc2ncccc2c1	5.26	8.82

SMILES	pKa (basic group)	pKa (acidic group)
CCCCCCCCN	10.8	
Nc1cc(O)ccc1O		10.1
Nc1[nH+]c2nc[nH]c2c(N)[n+]1O		1
C[C@H](NC(=O)[C@@H]1CCC(=O)N1)C(=O)O ([pGlu]-Ala-OH)		3.6
O=[N+]([O-])c1ccccc1B(O)O		8.52
O=C(O)c1ccc(/C=C/[N+](=O)[O-])cc1		3.94
CC(C)(CN)C[NH3+]	7.99	
NCC/C(N)=N/O	9.15	
CN(CCCN)CCCN	10.4	
c1cc(N2CCCC2)cc[nH+]1	-0.53	
C=C(C)C(=O)OCCN(C)CCCC	8.27	
Oc1ccc(Br)cc1Br		7.77
CC[C@]12CCCN3CC[C@@]4(c5cccc(OC)c5N(C(C)=O)[C@H]4CC1)[C@@H]32	7.57	
Cc1cc(C2(c3ccc(O)c(C)c3)OS(=O)(=O)c3c(Br)c(Br)c(Br)c(Br)c32)ccc1O		7.53
C[n+]1cccc2cc(S)ccc21		4.12
CN(C)[C@H]1CC[C@@H](C)CC1	10.5	
C[NH+]1CCN(C(c2ccccc2)c2ccccc2)CC1	2.16	
Brc1ccc(-c2ncc(-c3ccccc3)o2)cc1	0.4	
S=C(Nc1ccc(Cl)cc1)c1ccccc1		10.8
CC(C)NCC(=O)c1ccc([O-])cc1	9.58	
N#CC(C#N)=NNc1cccc(Cl)c1Cl	-0.71	5.15
CNC(C(=O)[O-])C(C)C (configuration not stated)	9.9	
[S-]c1ccncc1		8.83
C=C(C)C(=O)OCCN	8.7	

SMILES	pKa (basic group)	pKa (acidic group)
C/C(O)=N\[N+](C)(C)C		5.42
Cc1cccnc1N	7.24	
CN1C[C@H](CO)C[C@H]2c3cccc4[nH]cc(c34)C[C@@H]21	8.84	
COc1ccc(/C=N/O)cc1OC		10.8
C[n+]1ccc2c(O)cccc2c1		6.9
CCN1CCC=C1C	11.9	
O=C(O)C[NH2+]CCc1nnn[nH]1		3.28
CC(C)C(N)C(N)=O (configuration not stated)		8
Fc1cccc(NC=S)c1		10.9
Cc1cc(-c2ccccc2)nn2c(C[NH+]3CCOCC3)cnc12	2.9	
Cc1c(Br)cc(N)cc1Br	2.87	
CN(C)Cc1ccc(NC(=O)/C=N/[O-])cc1	9.56	
O=[N+]([O-])/C(=N/O)c1ccc(Cl)cc1		6.6
[N-]=[N+]=Nc1ncnc2nc[nH]c12		7.6
COc1cccc(N)c1	4.23	
Fc1ccc(NC(=S)c2ccc(Cl)cc2)cc1		10.4
COc1cccc(C(=N)c2ccccc2)c1	6.59	
CCc1cc(CC)c(OC)c(C(=O)NC[C@H]2CCC[NH+]2CC)c1O		7.24
Cc1cnc2c(cc(C)c3c(C)ccnc32)c1C	6.45	
CCC1(C2=CCCCC2)C(=O)NC(=S)NC1=O		7.12
CCCC1N=C(N)N=C(Nc2ccc(SC)cc2)N1 (configuration not stated)	10.6	
CCOC(=O)c1cnc(N(C)C)s1	2.77	
O=C(CC(=O)c1ccccc1)Nc1ccccc1		9.54
C[C@@H]1[NH2+][C@H](CCCCCCCC(=O)O)CC[C@@H]1O		4.6

SMILES	pKa (basic group)	pKa (acidic group)
COc1ccncn1	2.5	
Cc1cccc(C(=O)O)c1C		3.73
COc1cccnc1C(O)O		12.9
[NH3+]C(CC(=O)O)c1cccc[nH+]1 (configuration not stated)		1.3
Clc1ccc(C(Cn2ccnc2)OCc2ccc(Sc3ccccc3)cc2)c(Cl)c1 (configuration not stated)	6.54	
Brc1nnn[nH]1		2.13
CC(N)(C(=O)[O-])c1ccccc1 (configuration not stated)	9	
N[C@@H]1CCC[C@@H]1O	9.7	
CC([NH3+])C(=O)O (configuration not stated)		2.36
C[C@@H]1CCC[C@H](C)N1	11	
CCCCN(CCCC)c1ccc([N+](=O)[O-])cc1	1.08	
C[C@@H]1CCC[C@H](C(=O)O)C1		4.88
Nc1ccc(S(=O)(=O)Nc2ccn(-c3ccccc3[N+](=O)[O-])n2)cc1		7
Nc1nc(N)c2ccccc2n1	8.12	
CC(C)(/C=C/C(=O)[O-])c1cc([N+](=O)[O-])ccc1O		7.24
[NH3+]CC(=O)NCCc1c[nH]cn1	6.76	
CC(=O)OCC(=N/O)/C(C)=N/O		9.7
CNc1ccnc([S-])n1	11.1	
O=C(c1ccccc1)c1ccc(O)c(O)c1		7.74
CC[C@]1(O)C[C@H](C)N[C@@H]2CCCC[C@H]21	10.1	
Cc1cc(=O)n2ncnc2[nH]1		6.19
COC(=O)C(N)CCONC(N)=O (configuration not stated)	6.95	
CCNc1nnn[nH]1		6.12
CCCCN(C(=O)c1cccc(O)c1)c1ccc(/N=N/c2ccc3c(c2)OCCOCCOCCOCCOCCO3)cc1		9.54

SMILES	pKa (basic group)	pKa (acidic group)
O=C(O)c1cc(O)c(O)c(C(=O)O)[o+]1		0.6
O=C(O)COc1ccccc1		3.15
Nc1ccc2cc3ccc(Cl)cc3nc2c1	7.26	
O=C([O-])[C@@H]1O[C@H](Oc2ccc3[nH+]ccc(O)c3c2)[C@@H](O)[C@H](O)[C@H]1O		3.7
CN(C)c1cccc2c(S(=O)(=O)[N-]CCN3CCNCCNCCNCC3)cccc12	11.8	
CCCN(CCC)c1ccccc1	6.13	
O=C([O-])CC(=O)/C=N/O		8.7
CCSC(=O)c1ccc(OC)cc1	-3.77	
SCCN(Cc1ccccc1)Cc1ccccc1	7.62	
COc1cc([N+](=O)[O-])cc(C(=O)N[C@@H]2C[C@H]3CC[C@@H](C2)N3Cc2ccccc2)c1OC	8.7	
[O-]c1[nH+]ccc2c1cnc1ccccc12	4.1	
CC=C=CC(C)(C)C(=O)O		4.58
COc1cnccc1N	9.03	
COc1cnc2ccccc2n1	0.28	
CC(C(N)=O)S(N)(=O)=O (configuration not stated)		9.86
Cc1cc(N)nc2c1ccc1ccccc12	6.02	
NS(=O)(=O)c1ccc([N+](=O)[O-])cc1		8.63
Cc1ccc(S(=O)(=O)N[C@@H](CC(N)=O)C(=O)[O-])cc1		11.4
CCC(C)CC(=O)O (configuration not stated)		4.84
